Measured values from PubChem BioAssay AID1963440 (Molecular Pharmacology Branch, DTP, NCI, 2024).

Test system: NCI-H1417 complex spheroids, growth % test/control
Assay: Anticancer human tumor NCI-H1417 cell line growth inhibition [Asc];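 also: spheroids exposed to compounds for 7 days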;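 as to viability, T/C: 100% = DMSO vehicle control wells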
Conditions: for IC50: curve of first compound; for viability, T/C: stronger effect = lower value
Summary of the method: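 Complex spheroids combining tumor cells with HUVEC endothelial cells and human MSCs, at 37 degrees C, 5% CO2; agents tested alone or combined, half-log dilutions from at or near clinical Cmax, or 10 microM if Cmax unknown.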

C#Cc1c(F)ccc2cc(O)cc(-c3ncc4c(N5CC6CCC(C5)N6)nc(OCC56CCCN5CC(F)C6)nc4c3F)c12 (stereo not given) + Cc1c(S(C)(=O)=O)c(-c2cc(F)cc(N3CCN(c4ccc(NS(=O)(=O)c5ccc(NC(CCN6CCC(C(=O)OCCCP(=O)(O)O)CC6)CSc6ccccc6)c(S(=O)(=O)C(F)(F)F)c5)cc4)CC3)c2)c(-c2ccc(Cl)cc2)n1C(C)C
IC50 (second compound 0.1 µM): 5740 nM | IC50 (second compound 0.316 µM): < 31.6 nM | IC50 (second compound 1 µM): < 31.6 nM | IC50 (second compound 3.16 µM): < 31.6 nM | IC50 (second compound 10 µM): < 31.6 nM | viability, T/C (second compound 0.1 µM, first compound 0.0316 µM): 72% | viability, T/C (second compound 0.1 µM, first compound 0.1 µM): 83.9% | viability, T/C (second compound 0.1 µM, first compound 0.316 µM): 71.8% | viability, T/C (second compound 0.1 µM, first compound 1 µM): 75.8% | viability, T/C (second compound 0.1 µM, first compound 3.16 µM): 64.7% | viability, T/C (second compound 0.1 µM, first compound 10 µM): 35.7% | viability, T/C (second compound 0.316 µM, first compound 0.0316 µM): 42.6% | viability, T/C (second compound 0.316 µM, first compound 0.1 µM): 48% | viability, T/C (second compound 0.316 µM, first compound 0.316 µM): 34.8% | viability, T/C (second compound 0.316 µM, first compound 1 µM): 20.9% | viability, T/C (second compound 0.316 µM, first compound 3.16 µM): 12.9% | viability, T/C (second compound 0.316 µM, first compound 10 µM): 5.66% | viability, T/C (second compound 1 µM, first compound 0.0316 µM): 12% | viability, T/C (second compound 1 µM, first compound 0.1 µM): 10.5% | viability, T/C (second compound 1 µM, first compound 0.316 µM): 7.98% | viability, T/C (second compound 1 µM, first compound 1 µM): 5.31% | viability, T/C (second compound 1 µM, first compound 3.16 µM): 3.23% | viability, T/C (second compound 1 µM, first compound 10 µM): 4.53% | viability, T/C (second compound 3.16 µM, first compound 0.0316 µM): 3.15% | viability, T/C (second compound 3.16 µM, first compound 0.1 µM): 2.9% | viability, T/C (second compound 3.16 µM, first compound 0.316 µM): 3.53% | viability, T/C (second compound 3.16 µM, first compound 1 µM): 1.96% | viability, T/C (second compound 3.16 µM, first compound 3.16 µM): 1.85% | viability, T/C (second compound 3.16 µM, first compound 10 µM): 2.61% | viability, T/C (second compound 10 µM, first compound 0.0316 µM): 2.05% | viability, T/C (second compound 10 µM, first compound 0.1 µM): 2.06% | viability, T/C (second compound 10 µM, first compound 0.316 µM): 2.12% | viability, T/C (second compound 10 µM, first compound 1 µM): 1.68% | viability, T/C (second compound 10 µM, first compound 3.16 µM): 1.15% | viability, T/C (second compound 10 µM, first compound 10 µM): 2.22%

Cc1nc(N2CCC3(CC2)COC(C)C3N)c(CO)nc1Sc1ccnc(N)c1Cl (stereo not given) + Cc1c(S(C)(=O)=O)c(-c2cc(F)cc(N3CCN(c4ccc(NS(=O)(=O)c5ccc(NC(CCN6CCC(C(=O)OCCCP(=O)(O)O)CC6)CSc6ccccc6)c(S(=O)(=O)C(F)(F)F)c5)cc4)CC3)c2)c(-c2ccc(Cl)cc2)n1C(C)C
IC50 (second compound 0.1 µM): > 3000 nM | IC50 (second compound 0.316 µM): < 9.49 nM | IC50 (second compound 1 µM): < 9.49 nM | IC50 (second compound 3.16 µM): < 9.49 nM | IC50 (second compound 10 µM): < 9.49 nM | viability, T/C (second compound 0.1 µM, first compound 0.00949 µM): 81.4% | viability, T/C (second compound 0.1 µM, first compound 0.03 µM): 82% | viability, T/C (second compound 0.1 µM, first compound 0.0949 µM): 71.4% | viability, T/C (second compound 0.1 µM, first compound 0.3 µM): 64.8% | viability, T/C (second compound 0.1 µM, first compound 0.949 µM): 64.4% | viability, T/C (second compound 0.1 µM, first compound 3 µM): 52.6% | viability, T/C (second compound 0.316 µM, first compound 0.00949 µM): 46.9% | viability, T/C (second compound 0.316 µM, first compound 0.03 µM): 46.3% | viability, T/C (second compound 0.316 µM, first compound 0.0949 µM): 32.9% | viability, T/C (second compound 0.316 µM, first compound 0.3 µM): 23.9% | viability, T/C (second compound 0.316 µM, first compound 0.949 µM): 13.7% | viability, T/C (second compound 0.316 µM, first compound 3 µM): 12.2% | viability, T/C (second compound 1 µM, first compound 0.00949 µM): 12.4% | viability, T/C (second compound 1 µM, first compound 0.03 µM): 9.91% | viability, T/C (second compound 1 µM, first compound 0.0949 µM): 6.5% | viability, T/C (second compound 1 µM, first compound 0.3 µM): 3.75% | viability, T/C (second compound 1 µM, first compound 0.949 µM): 1.89% | viability, T/C (second compound 1 µM, first compound 3 µM): 0.84% | viability, T/C (second compound 3.16 µM, first compound 0.00949 µM): 2.34% | viability, T/C (second compound 3.16 µM, first compound 0.03 µM): 2.47% | viability, T/C (second compound 3.16 µM, first compound 0.0949 µM): 1.68% | viability, T/C (second compound 3.16 µM, first compound 0.3 µM): 1.09% | viability, T/C (second compound 3.16 µM, first compound 0.949 µM): 0.67% | viability, T/C (second compound 3.16 µM, first compound 3 µM): 0.5% | viability, T/C (second compound 10 µM, first compound 0.00949 µM): 2.47% | viability, T/C (second compound 10 µM, first compound 0.03 µM): 2.41% | viability, T/C (second compound 10 µM, first compound 0.0949 µM): 1.78% | viability, T/C (second compound 10 µM, first compound 0.3 µM): 1.37% | viability, T/C (second compound 10 µM, first compound 0.949 µM): 1.05% | viability, T/C (second compound 10 µM, first compound 3 µM): 1.2%
